{"source": "patent US10202368B2", "about": "“CXCR7 receptor modulators” (IDORSIA PHARMACEUTICALS LTD, priority 2014, dated 2019)", "data": [{"biological_target": "CXCR7 (Homo sapiens (Human), UniProt P25106)", "sequence (P25106 whole entry)": "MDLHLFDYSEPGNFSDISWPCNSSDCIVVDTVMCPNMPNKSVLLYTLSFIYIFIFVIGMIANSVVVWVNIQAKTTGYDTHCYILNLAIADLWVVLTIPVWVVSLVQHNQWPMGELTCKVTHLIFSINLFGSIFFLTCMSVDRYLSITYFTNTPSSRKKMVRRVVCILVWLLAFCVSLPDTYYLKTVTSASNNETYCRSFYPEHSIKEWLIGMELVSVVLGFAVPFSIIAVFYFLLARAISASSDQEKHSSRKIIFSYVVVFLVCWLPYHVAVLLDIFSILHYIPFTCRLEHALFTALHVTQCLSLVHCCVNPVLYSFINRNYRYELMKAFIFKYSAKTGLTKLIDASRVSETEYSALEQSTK", "sequence (P32121 whole entry partner)": "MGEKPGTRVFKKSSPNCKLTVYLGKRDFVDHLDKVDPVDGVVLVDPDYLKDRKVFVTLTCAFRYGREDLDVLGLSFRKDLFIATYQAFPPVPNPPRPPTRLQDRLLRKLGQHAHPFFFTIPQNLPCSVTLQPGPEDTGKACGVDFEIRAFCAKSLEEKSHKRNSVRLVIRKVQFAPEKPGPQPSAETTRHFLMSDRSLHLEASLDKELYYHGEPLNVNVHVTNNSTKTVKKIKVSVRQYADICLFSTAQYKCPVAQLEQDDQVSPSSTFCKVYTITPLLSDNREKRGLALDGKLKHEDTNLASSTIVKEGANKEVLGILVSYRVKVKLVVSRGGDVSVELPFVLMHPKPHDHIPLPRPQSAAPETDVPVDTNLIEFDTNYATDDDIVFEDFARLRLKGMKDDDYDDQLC", "test": "PathHunter CHO-K1 CXCR7 β-arrestin assay (agonistic activity)", "assay_type": "cell-based", "settings": "β-arrestin recruitment in PathHunter CHO-K1 CXCR7 β-arrestin cells, 90 minutes at 37° C., geometric mean values", "protocol": "The CXCI12 receptor and CXCR7 agonistic activities of the compounds of formula (I) are determined in accordance with the following experimental method.\nThe assay is using the PathHunter™ CHO-K1 CXCR7 β-arrestin cell line from DiscoverX. The system is based on the Enzyme Fragment Complementation Technology. Two complementing fragments of the β-galactosidase enzyme are expressed within stably transfected cells. The larger portion of β-gal, termed EA for Enzyme Acceptor, is fused to the C-terminus of b-arrestin 2. The smaller fragment, termed ProLink™ tag, is fused to CXCR7 at the C-terminus. Upon activation, b-arrestin is recruited which forces the interaction of ProLink and EA, allowing complementation of the two fragments of b-gal and the formation of a functional enzyme which is capable of hydrolysing the substrate and generating a chemiluminescent signal.\nCHO-K1 CXCR7 β-arrestin cells are detached from culture dishes with a cell dissociation buffer (Invitrogen, #13151-014) and collected in growing medium (F12 HAMS 90% (v/v)/FCS 10% (v/v), Penicillin/streptomycin 1% (v/v)). 5000 cells per well (in 20 μl) are seeded in a 384 well plate (white-walled, clear bottom; BD Falcon #353274). The plate is incubated at 37° C./5% CO2 for 24 hours. Medium is then replaced by 20 μl OPTIMEM (Invitrogen #31985) for 3 to 4 hours. Test compounds are dissolved at 10 mM in DMSO and serially diluted in DMSO to 200× of the final concentration for dose response curves. Compounds are then diluted 1:33.3 in HBSS1X. 5 μl/well of HBSS1X/20 mM HEPES/0.2% BSA are added to the assay plate followed by addition of 5 μl/well of diluted compounds. CXCL12 (Peprotech #300-28A) may be used as a reference agonist. The plate is incubated for 90 minutes at 37° C. 12 μl of detection reagent (Path Hunter Detection Kit, DiscoveRx, #93-0001) is transferred to the assay plate and to the plate is incubated for 1 hour at room temperature. Luminescent signal is read in a microplate reader (FLUOstar Optima, bmg). The calculated EC50 values may fluctuate depending on the daily cellular assay performance. Fluctuations of this kind are known to those skilled in the art. Average EC50 values from several measurements are given as geometric mean values.", "units": {"EC50": "nM"}, "values": [{"compound": "CC(=O)N1CCOc2c(cccc2NCC(=O)N(CCN(C)C)Cc2ccccc2C(F)(F)F)C1", "note": "[Example 20, 2-(4-Acetyl-2,3,4,5-tetrahydro-benzo[f][1,4]oxazepin-9-ylamino)-N-(2-dimethylamino-ethyl)-N-(2-trifluoromethyl-benzyl)-acetamide]", "EC50": 73}, {"compound": "CC(C)CN1CCOc2c(cccc2NCC(=O)N(CCN2CCCC2)Cc2ccc(F)cc2F)C1", "note": "[Example 12, N-(2,4-Difluoro-benzyl)-2-(4-isobutyl-2,3,4,5-tetrahydro-benzo[f][1,4]oxazepin-9-ylamino)-N-(2-pyrrolidin-1-yl-ethyl)-acetamide]", "EC50": 14}, {"compound": "CCN1CCOc2c(cccc2NCC(=O)N(CCN(C)C)Cc2ncccc2Cl)C1", "note": "[Example 4, N-(3-Chloro-pyridin-2-ylmethyl)-N-(2-dimethylamino-ethyl)-2-(4-ethyl-2,3,4,5-tetrahydro-benzo[f][1,4]oxazepin-9-ylamino)-acetamide]", "EC50": 24}, {"compound": "CC(C)NCCN(Cc1ccccc1C(F)(F)F)C(=O)CNc1cccc2c1OCCN(CC1CC1)C2", "note": "[Example 85, 2-(4-Cyclopropylmethyl-2,3,4,5-tetrahydro-benzo[f][1,4]oxazepin-9-ylamino)-N-(2-isopropylamino-ethyl)-N-(2-trifluoromethyl-benzyl)-acetamide]", "EC50": 3}, {"compound": "O=C(CNc1cccc2c1OCC(=O)N(CC1CC1)C2)N(CCN1CCCC1)Cc1ncccc1C(F)(F)F", "note": "[Example 65, 2-(4-cyclopropylmethyl-3-oxo-2,3,4,5-tetrahydro-benzo[f][1,4]oxazepin-9-ylamino)-N-(2-pyrrolidin-1-yl-ethyl)-N-(3-trifluoromethyl-pyridin-2-ylmethyl)-acetamide]", "EC50": 18}, {"compound": "CC(C)(C)NCCN(Cc1ccccc1C(F)(F)F)C(=O)CNc1cccc2c1CN(CC1CC1)CCO2", "note": "[Example 93, N-(2-tert-Butylamino-ethyl)-2-(4-cyclopropylmethyl-2,3,4,5-tetrahydro-benzo[f][1,4]oxazepin-6-ylamino)-N-(2-trifluoromethyl-benzyl)-acetamide]", "EC50": 3}, {"compound": "CC(C)N(CCN(Cc1ccccc1C(F)(F)F)C(=O)CNc1cccc2c1N(C)CCN(CC1CC1)C2)C(=O)OC(C)(C)C", "note": "[Example 50, {2-[[2-(4-Cyclopropylmethyl-1-methyl-2,3,4,5-tetrahydro-1H-benzo[e][1,4]diazepin-9-ylamino)-acetyl]-(2-trifluoromethyl-benzyl)-amino]-ethyl}-isopropyl-carbamic acid tert-butyl ester]", "EC50": 340}, {"compound": "2-(4-Cyclopropylmethyl-1-methyl-2,3,4,5-tetrahydro-1H-benzo[e][1,4]diazepin-9-ylamino)-N-(2-morpholin-4-yl-ethyl)-N-(3-trifluoromethyl-pyridin-2-ylmethyl)-acetamide [Example 55]", "EC50": 10}, {"compound": "CN(C)CCN(Cc1ncccc1Cl)C(=O)CNc1cccc2c1N(C)CCN(CC1CC1)C2=O", "note": "[Example 45, N-(3-Chloro-pyridin-2-ylmethyl)-2-(4-cyclopropylmethyl-1-methyl-5-oxo-2,3,4,5-tetrahydro-1H-benzo[e][1,4]diazepin-9-ylamino)-N-(2-dimethylamino-ethyl)-acetamide]", "EC50": 50}, {"compound": "Cc1cccnc1CN(CCN(C)C)C(=O)CNc1cccc2c1N(C)CCN(CC1CC1)C2=O", "note": "[Example 44, 2-(4-Cyclopropylmethyl-1-methyl-5-oxo-2,3,4,5-tetrahydro-1H-benzo[e][1,4]diazepin-9-ylamino)-N-(2-dimethylamino-ethyl)-N-(3-methyl-pyridin-2-ylmethyl)-acetamide]", "EC50": 130}, {"compound": "CN(C)CCN(Cc1c(Cl)cccc1Cl)C(=O)CNc1cccc2c1C(=O)N(CC1CC1)CCO2", "note": "[Example 31, 2-(4-Cyclopropylmethyl-5-oxo-2,3,4,5-tetrahydro-benzo[f][1,4]oxazepin-6-ylamino)-N-(2,6-dichloro-benzyl)-N-(2-dimethylamino-ethyl)-acetamide]", "EC50": 27}, {"compound": "CCN1CCOc2c(cccc2NCC(=O)N(CCN(C(=O)OC(C)(C)C)C(C)C)Cc2ccccc2C(F)(F)F)C1", "note": "[Example 69, {2-[[2-(4-Ethyl-2,3,4,5-tetrahydro-benzo[f][1,4]oxazepin-9-ylamino)-acetyl]-(2-trifluoromethyl-benzyl)-amino]-ethyl}-isopropyl-carbamic acid tert-butyl ester]", "EC50": 430}, {"compound": "CCN1CCOc2c(cccc2NCC(=O)N(CCN(C)C)Cc2cnc(C(F)(F)F)s2)C1", "note": "[Example 76, N-(2-Dimethylamino-ethyl)-2-(4-ethyl-2,3,4,5-tetrahydro-benzo[f][1,4]oxazepin-9-ylamino)-N-(2-trifluoromethyl-thiazol-5-ylmethyl)-acetamide]", "EC50": 430}, {"compound": "CCN1CCOc2c(cccc2NCC(=O)N(CCN2CCCC2)Cc2ncccc2C(F)(F)F)C1", "note": "[Example 74, 2-(4-Ethyl-2,3,4,5-tetrahydro-benzo[f][1,4]oxazepin-9-ylamino)-N-(2-pyrrolidin-1-yl-ethyl)-N-(3-trifluoromethyl-pyridin-2-ylmethyl)-acetamide]", "EC50": 5}, {"compound": "CCN1CCOc2c(NCC(=O)N(CCN(C)C)Cc3ccccc3C(F)(F)F)cccc2C1=O", "note": "[Example 41, N-(2-Dimethylamino-ethyl)-2-(4-ethyl-5-oxo-2,3,4,5-tetrahydro-benzo[f][1,4]oxazepin-9-ylamino)-N-(2-trifluoromethyl-benzyl)-acetamide]", "EC50": 22}, {"compound": "CC(C)(C)NCCN(Cc1ccccc1C(F)(F)F)C(=O)CNc1cccc2c1OCC(=O)N(CC1CC1)C2", "note": "[Example 66, N-(2-tert-butylamino-ethyl)-2-(4-cyclopropylmethyl-3-oxo-2,3,4,5-tetrahydro-benzo[f][1,4]oxazepin-9-ylamino)-N-(2-trifluoromethyl-benzyl)-acetamide]", "EC50": 18}, {"compound": "CC(C)CN1CCOc2c(cccc2NCC(=O)N(CCN2CCCC2)Cc2ccccc2Cl)C1", "note": "[Example 15, N-(2-Chloro-benzyl)-2-(4-isobutyl-2,3,4,5-tetrahydro-benzo[f][1,4]oxazepin-9-ylamino)-N-(2-pyrrolidin-1-yl-ethyl)-acetamide]", "EC50": 11}, {"compound": "CC(C)(C)NCCN(Cc1ncccc1Cl)C(=O)CNc1cccc2c1CN(CC1CC1)CCO2", "note": "[Example 92, N-(2-tert-Butylamino-ethyl)-N-(3-chloro-pyridin-2-ylmethyl)-2-(4-cyclopropylmethyl-2,3,4,5-tetrahydro-benzo[f][1,4]oxazepin-6-ylamino)-acetamide]", "EC50": 10}, {"compound": "CCN1CCOc2c(cccc2NCC(=O)N(CCN(C)C)Cc2c(C(F)(F)F)nn(C)c2Cl)C1", "note": "[Example 77, N-(5-Chloro-1-methyl-3-trifluoromethyl-1H-pyrazol-4-ylmethyl)-N-(2-dimethylamino-ethyl)-2-(4-ethyl-2,3,4,5-tetrahydro-benzo[f][1,4]oxazepin-9-ylamino)-acetamide]", "EC50": 280}, {"compound": "CCN1CCOc2c(cccc2NCC(=O)N(CCN(C)C)Cc2ncccc2C(F)(F)F)C1", "note": "[Example 72, N-(2-Dimethylamino-ethyl)-2-(4-ethyl-2,3,4,5-tetrahydro-benzo[f][1,4]oxazepin-9-ylamino)-N-(3-trifluoromethyl-pyridin-2-ylmethyl)-acetamide]", "EC50": 6}, {"compound": "CC(C)(C)NCCN(Cc1ccccc1C(F)(F)F)C(=O)CNc1cccc2c1OCCN(CC1CC1)C2", "note": "[Example 83, N-(2-tert-Butylamino-ethyl)-2-(4-cyclopropylmethyl-2,3,4,5-tetrahydro-benzo[f][1,4]oxazepin-9-ylamino)-N-(2-trifluoromethyl-benzyl)-acetamide]", "EC50": 3}, {"compound": "CC(C)NCCN(Cc1ccccc1C(F)(F)F)C(=O)CNc1cccc2c1CN(CC1CC1)CCO2", "note": "[Example 89, 2-(4-Cyclopropylmethyl-2,3,4,5-tetrahydro-benzo[f][1,4]oxazepin-6-ylamino)-N-(2-isopropylamino-ethyl)-N-(2-trifluoromethyl-benzyl)-acetamide]", "EC50": 5}, {"compound": "CC(C)CN1CCOc2c(cccc2NCC(=O)N(CCN(C)C)Cc2c(F)cccc2F)C1", "note": "[Example 19, N-(2,6-Difluoro-benzyl)-N-(2-dimethylamino-ethyl)-2-(4-isobutyl-2,3,4,5-tetrahydro-benzo[f][1,4]oxazepin-9-ylamino)-acetamide]", "EC50": 12}, {"compound": "CCN1CCN(CC)c2c(NCC(=O)N(CCN3CCOCC3)Cc3ncccc3C(F)(F)F)cccc2C1=O", "note": "[Example 47, 2-(1,4-Diethyl-5-oxo-2,3,4,5-tetrahydro-1H-benzo[e][1,4]diazepin-9-ylamino)-N-(2-morpholin-4-yl-ethyl)-N-(3-trifluoromethyl-pyridin-2-ylmethyl)-acetamide]", "EC50": 430}]}]}
